According to US9200008B2 (ASKA PHARMACEUTICAL CO., LTD., priority 2010, dated 2015):

Tested on: Human prostate cancer cell lines (PC-3 cells)
Assay: Measurement of cell death-inducing activity (Test Example 1)
Type: cell-based
Settings: PC-3, 48 h, 48 hours after addition, tested at 10, 1, 0.1, 0.025 and 0.00625 μmol/L, qualitative evaluation of 10 fields, read-out: Concentration showing the cell death-inducing activity (cell death-inducing rate not less than 40%)
In short: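 PC-3 cells seeded at 1×10^5 cells/well and grown 48 h at 37 °C, 5% CO2, then exposed to compound at 10, 1, 0.1, 0.025 and 0.00625 μmol/L (DMSO control) for a further 48 h. Activity was called where cell death-inducing rate was not less than 40%.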

SMILES | minimal effective concentration [µM]
CCn1cnc2cc(NC(=O)OCc3sc(-c4ccc(F)cc4Cl)nc3C)ccc21 [Example 13-18] | 0.025
CCCn1cnc2cc(NC(=O)OCc3sc(-c4ccc(C)cc4C)nc3C)ccc21 [Example 13-19] | 1
CCn1c(C)nc2cc(NC(=O)OCc3sc(-c4ccc(C)cc4C)nc3C)ccc21 [Example 13-20] | 1
CCn1c(C)nc2cc(NC(=O)OCc3sc(-c4ccc(Cl)cc4C)nc3C)ccc21 [Example 13-21] | 0.1
COc1ccccc1-c1nc(C)c(COC(=O)Nc2ccc3c(c2)nc2n3CCOC2)s1 [Example 13-22] | 10
COc1cc(Cl)ccc1-c1nc(C)c(COC(=O)Nc2ccc3c(c2)nc2n3CCOC2)s1 [Example 13-23] | 1
Cc1ccc(-c2nc(C)c(COC(=O)Nc3ccc4c(c3)nc3n4CCOC3)s2)c(C)c1 [Example 13-24] | 0.025
Cc1cc(F)ccc1-c1nc(C)c(COC(=O)Nc2ccc3c(c2)nc2n3CCOC2)s1 [Example 13-25] | 0.025
Cc1cc(Cl)ccc1-c1nc(C)c(COC(=O)Nc2ccc3c(c2)nc2n3CCOC2)s1 [Example 13-26] | 0.00625
COc1cc(Cl)ccc1-c1nc(C)c(COC(=O)Nc2ccc3c(c2)nc2n3CCC2)s1 [Example 13-27] | 1
Cc1ccc(-c2nc(C)c(COC(=O)Nc3ccc4c(c3)nc3n4CCC3)s2)c(C)c1 [Example 13-28] | 0.025
Cc1nc(-c2ccc(F)cc2Cl)sc1COC(=O)Nc1ccc2c(c1)nc1n2CCC1 [Example 13-30] | 0.1
COc1cc(Cl)ccc1-c1nc(C)c(COC(=O)Nc2ccc3c(c2)nc2n3CCCC2)s1 [Example 13-31] | 1
Cc1ccc(-c2nc(C)c(COC(=O)Nc3ccc4c(c3)nc3n4CCCC3)s2)c(C)c1 [Example 13-33] | 0.1
Cc1cc(F)ccc1-c1nc(C)c(COC(=O)Nc2ccc3c(c2)nc2n3CCCC2)s1 [Example 13-34] | 0.025
Cc1cc(Cl)ccc1-c1nc(C)c(COC(=O)Nc2ccc3c(c2)nc2n3CCCC2)s1 [Example 13-35] | 0.025
COc1cc(Cl)ccc1-c1nc(C)c(COC(=O)Nc2ccc3c(c2)nc2n3C(C)CCC2)s1 (stereo not drawn) [Example 13-36] | 10
Cc1cc(Cl)ccc1-c1nc(C)c(COC(=O)Nc2ccc3c(c2)nc2n3CCCCC2)s1 [Example 13-39] | 1
COc1cc(Cl)ccc1-c1nc(C)c(COC(=O)Nc2ccc3c(cnn3C)c2)s1 [Example 13-41] | 1
CCn1ncc2cc(NC(=O)OCc3sc(-c4ccc(F)cc4C)nc3C)ccc21 [Example 13-44] | 0.1
CCn1ncc2cc(NC(=O)OCc3sc(-c4ccc(C)cc4C)nc3C)ccc21 [Example 13-45] | 0.1
COc1cc(Cl)ccc1-c1nc(C)c(COC(=O)Nc2ccc3nn(C)cc3c2)s1 [Example 13-46] | 10
Cc1ccc(-c2nc(C)c(COC(=O)Nc3ccc4nn(C)cc4c3)s2)c(C)c1 [Example 13-48] | 0.1
Cc1cc(F)ccc1-c1nc(C)c(COC(=O)Nc2ccc3nn(C)cc3c2)s1 [Example 13-49] | 0.1

SMILES | minimal effective concentration [µM]
Cc1cc(Cl)ccc1-c1nc(C)c(COC(=O)Nc2ccc3nn(C)cc3c2)s1 [Example 13-50] | 0.025
CCn1cc2cc(NC(=O)OCc3sc(-c4ccc(F)cc4C)nc3C)ccc2n1 [Example 13-54] | 0.1
CCn1cc2cc(NC(=O)OCc3sc(-c4ccc(Cl)cc4C)nc3C)ccc2n1 [Example 13-55] | 0.025
CCn1cc2cc(NC(=O)OCc3sc(-c4ccc(F)cc4Cl)nc3C)ccc2n1 [Example 13-56] | 0.1
CCn1cnc2cc(NC(=O)OCc3sc(-c4ccco4)nc3C)ccc21 [Example 13-57] | 1
Cc1nc(-c2sccc2Cl)sc1COC(=O)Nc1ccc2c(c1)nc1n2CCOC1 [Example 13-61] | 10
COc1ccccc1-c1ncc(COC(=O)Nc2ccc3c(c2)ncn3C)s1 [Example 13-66] | 10
CCc1nc(-c2ccc(Cl)cc2OC)sc1COC(=O)Nc1ccc2c(c1)ncn2C [Example 13-67] | 0.1
CCCc1nc(-c2ccc(Cl)cc2OC)sc1COC(=O)Nc1ccc2c(c1)ncn2C [Example 13-68] | 1
COc1ccc(NC(=O)OCc2cc(-c3ccc(F)cc3OC)nn2C)cc1 [Example 13-70] | 10
COc1ccc(NC(=O)OCc2cc(-c3ccc(Cl)cc3OC)nn2C)cc1F [Example 13-71] | 1
COc1ccc(NC(=O)OCc2cc(-c3ccc(C)cc3OC)nn2C)cc1F [Example 13-72] | 1
COc1cc(Cl)ccc1-c1cc(COC(=O)Nc2ccc3c(c2)CCO3)n(C)n1 [Example 13-73] | 10
COc1ccccc1-c1cc(COC(=O)Nc2ccc3c(c2)ncn3C)n(C)n1 [Example 13-76] | 0.025
CCn1nc(-c2ccccc2OC)cc1COC(=O)Nc1ccc2c(c1)ncn2C [Example 13-77] | 0.1
CCn1cnc2cc(NC(=O)OCc3cc(-c4ccccc4OC)nn3C)ccc21 [Example 13-78] | 0.1
COc1cc(F)ccc1-c1cc(COC(=O)Nc2ccc3c(c2)ncn3C)n(C)n1 [Example 13-80] | 0.00625
CCn1nc(-c2ccc(F)cc2OC)cc1COC(=O)Nc1ccc2c(c1)ncn2C [Example 13-81] | 0.025
CCn1cnc2cc(NC(=O)OCc3cc(-c4ccc(F)cc4OC)nn3C)ccc21 [Example 13-82] | 0.025
CCn1nc(-c2ccc(F)cc2OC)cc1COC(=O)Nc1ccc2c(c1)ncn2CC [Example 13-83] | 0.025
COc1cc(Cl)ccc1-c1cc(COC(=O)Nc2ccc3c(c2)ncn3C)n(C)n1 [Example 13-84] | 0.00625
CCn1nc(-c2ccc(Cl)cc2OC)cc1COC(=O)Nc1ccc2c(c1)ncn2C [Example 13-85] | 0.00625
CCn1cnc2cc(NC(=O)OCc3cc(-c4ccc(Cl)cc4OC)nn3C)ccc21 [Example 13-86] | 0.00625
CCn1nc(-c2ccc(Cl)cc2OC)cc1COC(=O)Nc1ccc2c(c1)ncn2CC [Example 13-87] | 0.025

SMILES | minimal effective concentration [µM]
COc1cc(C)ccc1-c1cc(COC(=O)Nc2ccc3c(c2)ncn3C)n(C)n1 [Example 13-88] | 0.00625
CCn1nc(-c2ccc(C)cc2OC)cc1COC(=O)Nc1ccc2c(c1)ncn2C [Example 13-89] | 0.00625
CCn1nc(-c2ccc(C)cc2OC)cc1COC(=O)Nc1ccc2c(c1)ncn2CC [Example 13-91] | 0.1
CCn1cnc2cc(NC(=O)OCc3cc(-c4ccc(C)cc4C)nn3C)ccc21 [Example 13-92] | 0.00625
COCc1nc2cc(NC(=O)OCc3cc(-c4ccc(C)cc4OC)nn3C)ccc2n1C [Example 13-93] | 1
COCCn1cnc2cc(NC(=O)OCc3cc(-c4ccc(Cl)cc4OC)nn3C)ccc21 [Example 13-94] | 1
COc1ccccc1-c1cc(COC(=O)Nc2ccc3c(c2)nc2n3CCOC2)n(C)n1 [Example 13-95] | 0.025
CCn1nc(-c2ccccc2OC)cc1COC(=O)Nc1ccc2c(c1)nc1n2CCOC1 [Example 13-96] | 0.1
COc1cc(F)ccc1-c1cc(COC(=O)Nc2ccc3c(c2)nc2n3CCOC2)n(C)n1 [Example 13-97] | 0.00625
CCn1nc(-c2ccc(F)cc2OC)cc1COC(=O)Nc1ccc2c(c1)nc1n2CCOC1 [Example 13-98] | 0.025
COc1cc(Cl)ccc1-c1cc(COC(=O)Nc2ccc3c(c2)nc2n3CCOC2)n(C)n1 [Example 13-99] | 0.00625
CCn1nc(-c2ccc(Cl)cc2OC)cc1COC(=O)Nc1ccc2c(c1)nc1n2CCOC1 [Example 13-100] | 0.00625
CCn1nc(-c2ccc(C)cc2OC)cc1COC(=O)Nc1ccc2c(c1)nc1n2CCOC1 [Example 13-102] | 0.025
Cc1ccc(-c2cc(COC(=O)Nc3ccc4c(c3)nc3n4CCOC3)n(C)n2)c(C)c1 [Example 13-103] | 0.00625
CCn1nc(-c2ccc(C)cc2C)cc1COC(=O)Nc1ccc2c(c1)nc1n2CCOC1 [Example 13-104] | 0.025
COc1ccccc1-c1cc(COC(=O)Nc2ccc3c(c2)nc2n3CCC2)n(C)n1 [Example 13-105] | 0.025
COc1cc(F)ccc1-c1cc(COC(=O)Nc2ccc3c(c2)nc2n3CCC2)n(C)n1 [Example 13-106] | 0.00625
CCn1nc(-c2ccc(F)cc2OC)cc1COC(=O)Nc1ccc2c(c1)nc1n2CCC1 [Example 13-107] | 0.025
COc1cc(Cl)ccc1-c1cc(COC(=O)Nc2ccc3c(c2)nc2n3CCC2)n(C)n1 [Example 13-108] | 0.00625
CCn1nc(-c2ccc(Cl)cc2OC)cc1COC(=O)Nc1ccc2c(c1)nc1n2CCC1 [Example 13-109] | 0.00625
Cc1ccc(-c2cc(COC(=O)Nc3ccc4c(c3)nc3n4CCC3)n(C)n2)c(C)c1 [Example 13-110] | 0.00625
CCn1nc(-c2ccc(C)cc2C)cc1COC(=O)Nc1ccc2c(c1)nc1n2CCC1 [Example 13-111] | 0.00625
COc1cc(C)ccc1-c1cc(COC(=O)Nc2ccc3c(c2)nc2n3CCC2)n(C)n1 [Example 13-112] | 0.00625
CCn1nc(-c2ccc(C)cc2OC)cc1COC(=O)Nc1ccc2c(c1)nc1n2CCC1 [Example 13-113] | 0.00625
